Measured values taken from patent US7932270B2 (Cytokinetics, Inc., priority 2006, dated 2011).

Molecular target: T1, chicken gizzard smooth muscle myosin subfragment-1 chemically crosslinked to cardiac or skeletal actin (Gallus gallus, UniProt P10587)
T1 construct: chicken gizzard smooth muscle myosin subfragment-1; from tissue; host or cells: chicken gizzard
Assay: Smooth muscle myosin ATPase dose response assay (pyruvate kinase/horseradish peroxidase/pyruvate oxidase-coupled, amplex red fluorescence)
Assay type: biochemical
Conditions: read-out: IC50 Arithmetic Mean
In short: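 Amplex red fluorescence (480 nm excitation, 615 nm emission) tracked ATP hydrolysis by smooth muscle S1 crosslinked to actin with carbodiimide/N-hydroxysuccinimide. Reactions contained 0.15 mM ATP and 100 mM KCl at pH 7.00, 22° C. IC50 came from a four-parameter logistic fit.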

T1 sequence (P02607 2-151): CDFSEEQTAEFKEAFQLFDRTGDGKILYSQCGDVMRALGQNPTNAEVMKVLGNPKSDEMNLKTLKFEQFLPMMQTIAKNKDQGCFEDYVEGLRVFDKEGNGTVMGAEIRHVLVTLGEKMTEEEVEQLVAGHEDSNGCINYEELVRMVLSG
T1 sequence (P10587 84-789): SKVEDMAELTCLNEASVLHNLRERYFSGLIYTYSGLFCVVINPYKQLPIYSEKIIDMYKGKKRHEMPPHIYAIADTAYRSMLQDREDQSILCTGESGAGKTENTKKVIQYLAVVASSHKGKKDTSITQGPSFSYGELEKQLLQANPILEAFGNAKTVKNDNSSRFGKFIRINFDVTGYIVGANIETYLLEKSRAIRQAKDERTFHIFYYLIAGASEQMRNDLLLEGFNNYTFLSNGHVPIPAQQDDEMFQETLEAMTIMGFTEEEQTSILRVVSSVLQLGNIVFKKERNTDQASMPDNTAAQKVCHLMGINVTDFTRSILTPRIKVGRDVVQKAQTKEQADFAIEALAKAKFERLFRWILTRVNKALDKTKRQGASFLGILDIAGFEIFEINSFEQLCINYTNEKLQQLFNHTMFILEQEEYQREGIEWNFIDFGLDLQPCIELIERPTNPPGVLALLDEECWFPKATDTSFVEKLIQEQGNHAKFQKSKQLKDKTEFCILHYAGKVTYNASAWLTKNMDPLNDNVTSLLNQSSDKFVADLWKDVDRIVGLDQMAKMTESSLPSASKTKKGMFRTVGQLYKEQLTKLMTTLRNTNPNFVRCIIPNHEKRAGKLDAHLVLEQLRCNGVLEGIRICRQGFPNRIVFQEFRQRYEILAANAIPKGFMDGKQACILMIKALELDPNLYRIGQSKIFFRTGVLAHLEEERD

SMILES	IC50
N#Cc1ccccc1-c1ccc(C(=O)NCC2CCN(CCCN)C2=O)c(NCCc2cccc(F)c2)n1 (stereo not shown) [N-{[1-(3-aminopropyl)-2-oxopyrrolidin-3-yl]methyl}(6-(2-cyanophenyl)-2-{[2-(3-fluorophenyl)ethyl]amino}(3-pyridyl))carboxamide]	382 nM
N#Cc1ccccc1-c1ccc(C(=O)NCc2cccnc2)c(NCCc2cccc(F)c2F)n1 [(2-{[2-(2,3-difluorophenyl)ethyl]amino}-6-(2-cyanophenyl)(3-pyridyl))-N-(3-pyridylmethyl)carboxamide]	22 nM
O=C(NCc1cccnc1)c1ccc(-c2ccccc2)nc1NCCC1=CCCCC1 [{2-[(2-cyclohex-1-enylethyl)amino]-6-phenyl(3-pyridyl)}-N-(3-pyridylmethyl)carboxamide]	532 nM
CC(C)(C)OC(=O)NCCCN1CCC[C@@H]1CNC(=O)c1ccc(-c2ccccc2C#N)nc1NCCc1cccc(F)c1 [N-[((2R)-1-{3-[(tert-butoxy)carbonylamino]propyl}pyrrolidin-2-yl)methyl](6-(2-cyanophenyl)-2-{[2-(3-fluorophenyl)ethyl]amino}(3-pyridyl))carboxamide]	1340 nM
Cn1cc(-c2nc(NCCc3cccc(F)c3)c(C(=O)NC[C@H]3CCC(=O)N3CCCNC(=O)OC(C)(C)C)cc2F)cn1 [N-[((2R)-1-{3-[(tert-butoxy)carbonylamino]propyl}-5-oxopyrrolidin-2-yl)methyl](5-fluoro-2-{[2-(3-fluorophenyl)ethyl]amino}-6-(1-methylpyrazol-4-yl)(3-pyridyl))carboxamide]	322 nM
Cn1cc(-c2nc(NCCc3cccc(F)c3)c(C(=O)NCC3COC(C)(C)OC3)cc2F)cn1 [N-[(2,2-dimethyl(1,3-dioxan-5-yl))methyl](5-fluoro-2-{[2-(3-fluorophenyl)ethyl]amino}-6-(1-methylpyrazol-4-yl)(3-pyridyl))carboxamide]	2230 nM
COC(=O)N1CCN(C)C[C@@H]1CNC(=O)c1ccc(-c2ccccc2C#N)nc1NCCc1cccc(F)c1 [methyl (2S)-2-{[(6-(2-cyanophenyl)-2-{[2-(3-fluorophenyl)ethyl]amino}(3-pyridyl))carbonylamino]methyl}-4-methylpiperazinecarboxylate]	10100 nM
N#Cc1ccccc1-c1ccc(C(=O)NC[C@H]2CCCN2S(=O)(=O)CCCN)c(NCCc2cccc(F)c2)n1 [N-({(2R)-1-[(3-aminopropyl)sulfonyl]pyrrolidin-2-yl}methyl)(6-(2-cyanophenyl)-2-{[2-(3-fluorophenyl)ethyl]amino}(3-pyridyl))carboxamide]	234 nM
CC(C)(C)OC(=O)NCc1ncccc1CNC(=O)c1ccc(-c2ccccc2C#N)nc1NCCc1cccc(F)c1 [N-[(2-{[(tert-butoxy)carbonylamino]methyl}(3-pyridyl))methyl](6-(2-cyanophenyl)-2-{[2-(3-fluorophenyl)ethyl]amino}(3-pyridyl))carboxamide]	1210 nM
O=C(NCc1cccnc1)c1ccc(-c2ccccc2)nc1NCCOc1ccccc1 [{6-phenyl-2-[(2-phenyoxyethyl)amino](3-pyridyl)}-N-(3-pyridylmethyl)carboxamide]	20200 nM
O=C1CNC[C@@H](CNC(=O)c2ccc(-c3cn[nH]c3)nc2NCCc2cccc(F)c2)N1 [N-[((2S)-6-oxopiperazin-2-yl)methyl](2-{[2-(3-fluorophenyl)ethyl]amino}-6-pyrazol-4-yl(3-pyridyl))carboxamide]	16000 nM
C[C@H](CNC(=O)c1ccc(-c2ccccc2C#N)nc1NCCc1cccc(F)c1)NS(C)(=O)=O [N-{(2R)-2-[(methylsulfonyl)amino]propyl}(6-(2-cyanophenyl)-2-{[2-(3-fluorophenyl)ethyl]amino}(3-pyridyl))carboxamide]	1330 nM
CC[C@H](CNC(=O)c1cc(F)c(-c2cn[nH]c2)nc1NCCc1cccc(F)c1)C(=O)OC [methyl (2R)-2-{[(5-fluoro-2-{[2-(3-fluorophenyl)ethyl]amino}-6-pyrazol-4-yl(3-pyridyl))carbonylamino]methyl}butanoate]	117 nM
CC(C)(C)OC(=O)NCc1ncccc1CNC(=O)c1cc(C#N)c(-c2cn[nH]c2)nc1NCCc1cccc(F)c1 [N-[(2-{[(tert-butoxy)carbonylamino]methyl}(3-pyridyl))methyl](5-cyano-2-{[2-(3-fluorophenyl)ethyl]amino}-6-pyrazol-4-yl(3-pyridyl))carboxamide]	1000 nM
NCCCn1nccc1CNC(=O)c1ccc(-c2cn[nH]c2)nc1NCCc1cccc(F)c1 [N-{[1-(3-aminopropyl)pyrazol-5-yl]methyl}(2-{[2-(3-fluorophenyl)ethyl]amino}-6-pyrazol-4-yl(3-pyridyl))carboxamide]	95 nM
CS(=O)(=O)N1CC[C@@H]1CNC(=O)c1ccc(-c2ccccc2C#N)nc1NCCc1cccc(F)c1 [N-{[(2R)-1-(methylsulfonyl)azetidin-2-yl]methyl}(6-(2-cyanophenyl)-2-{[2-(3-fluorophenyl)ethyl]amino}(3-pyridyl))carboxamide]	1520 nM
C[C@H](CNC(=O)c1cc(F)c(-c2cnn(C)c2)nc1NCCc1cccc(F)c1)NCC(N)=O [N-{(2R)-2-[(carbamoylmethyl)amino]propyl}(5-fluoro-2-{[2-(3-fluorophenyl)ethyl]amino}-6-(1-methylpyrazol-4-yl)(3-pyridyl))carboxamide]	636 nM

Second part, the compound after the results:

IC50	SMILES
456 nM	N#Cc1ccccc1-c1ccc(C(=O)NC[C@H]2CCCCN2C(=O)[C@H](N)CCCN)c(NCCc2cccc(F)c2)n1 [N-{[(2R)-1-((2R)-2,5-diaminopentanoyl)(2-piperidyl)]methyl}(6-(2-cyanophenyl)-2-{[2-(3-fluorophenyl)ethyl]amino}(3-pyridyl))carboxamide]
87 nM	COc1ncccc1CNC(=O)c1ccc(-c2ccccc2C#N)nc1NCCc1cccc(F)c1 [(6-(2-cyanophenyl)-2-{[2-(3-fluorophenyl)ethyl]amino}(3-pyridyl))-N-[(2-methoxy(3-pyridyl))methyl]carboxamide]
27700 nM	CNC(=O)c1ccc(-c2ccccc2)nc1NCCc1ccccn1 [N-methyl{6-phenyl-2-[(2-(2-pyridyl)ethyl)amino](3-pyridyl)}carboxamide]
20 nM	Cn1ncc(-c2ccc(C(=O)NCc3cccnc3)c(NCCc3cccc(F)c3)n2)c1C#N [(6-(5-cyano-1-methylpyrazol-4-yl)-2-{[2-(3-fluorophenyl)ethyl]amino}(3-pyridyl))-N-(3-pyridylmethyl)carboxamide]
16400 nM	N#CCc1ccccc1-c1ccc(C(=O)NCc2cccnc2)c(NCCc2cccc(F)c2)n1 [(6-[2-(cyanomethyl)phenyl]-2-{[2-(3-fluorophenyl)ethyl]amino}(3-pyridyl))-N-(3-pyridylmethyl)carboxamide]
100 nM	C[C@H](CNC(=O)c1cc(F)c(-c2cnn(C)c2)nc1NCCc1cccc(F)c1)NC(=O)CCCNC(=O)OC(C)(C)C
6150 nM	O=C(NCc1ncc[nH]1)c1ccc(-c2ccccc2)nc1NCCc1ccccn1 [N-(imidazol-2-ylmethyl){6-phenyl-2-[(2-(2-pyridyl)ethyl)amino](3-pyridyl)}carboxamide]
1000 nM	C[C@H](CNC(=O)c1cc(F)c(-c2cnn(C)c2)nc1NCCc1cccc(F)c1)NS(C)(=O)=O [N-{(2R)-2-[(methylsulfonyl)amino]propyl}(5-fluoro-2-{[2-(3-fluorophenyl)ethyl]amino}-6-(1-methylpyrazol-4-yl)(3-pyridyl))carboxamide]
816 nM	N#Cc1ccccc1-c1ccc(C(=O)N[C@@H](CN)C(N)=O)c(NCCc2cccc(F)c2)n1 [N-((1S)-2-amino-1-carbamoylethyl)(6-(2-cyanophenyl)-2-{[2-(3-fluorophenyl)ethyl]amino}(3-pyridyl))carboxamide]
532 nM	CN(C)C(=O)CNC(=O)c1ccc(-c2ccccc2C#N)nc1NCCc1cccc(F)c1 [2-[(6-(2-cyanophenyl)-2-{[2-(3-fluorophenyl)ethyl]amino}(3-pyridyl))carbonylamino]-N,N-dimethylacetamide]
735 nM	N#Cc1cc(C(=O)NC[C@H]2CCC(=O)N2CCCN)c(NCCc2cccc(F)c2)nc1-c1cn[nH]c1 [N-{[(2R)-1-(3-aminopropyl)-5-oxopyrrolidin-2-yl]methyl}(5-cyano-2-{[2-(3-fluorophenyl)ethyl]amino}-6-pyrazol-4-yl(3-pyridyl))carboxamide]
328 nM	CNC(=O)CNC(=O)c1ccc(-c2cn[nH]c2)nc1NCCc1cccc(F)c1 [2-[(2-{[2-(3-fluorophenyl)ethyl]amino}-6-pyrazol-4-yl(3-pyridyl))carbonylamino]-N-methylacetamide]
32 nM	N#Cc1ccccc1-c1ccc(C(=O)NCC2CCNC2=O)c(NCCc2cccc(F)c2)n1 (stereo not shown) [(6-(2-cyanophenyl)-2-{[2-(3-fluorophenyl)ethyl]amino}(3-pyridyl))-N-[(2-oxopyrrolidin-3-yl)methyl]carboxamide]
157 nM	O=C(NCc1cccnc1)c1ccc(-c2cccc(F)c2)nc1NCCc1cccc(F)c1 [(6-(3-fluorophenyl)-2-{[2-(3-fluorophenyl)ethyl]amino}(3-pyridyl))-N-(3-pyridylmethyl)carboxamide]
20300 nM	CS(=O)(=O)N1CCCC(CNC(=O)c2ccc(-c3ccccc3)nc2NCCc2ccccn2)C1 (stereo not shown) [N-{[1-(methylsulfonyl)(3-piperidyl)]methyl}{6-phenyl-2-[(2-(2-pyridyl)ethyl)amino](3-pyridyl)}carboxamide]
166 nM	C[C@@H](N)C(=O)N1CCC[C@@H]1CNC(=O)c1ccc(-c2ccccc2C#N)nc1NCCc1cccc(F)c1 [N-{[(2R)-1-((2R)-2-aminopropanoyl)pyrrolidin-2-yl]methyl}(6-(2-cyanophenyl)-2-{[2-(3-fluorophenyl)ethyl]amino}(3-pyridyl))carboxamide]
46 nM	O=C(NC[C@H]1CCN1C(=O)CO)c1cc(F)c(-c2cn[nH]c2)nc1NCCc1cccc(F)c1 [N-{[(2R)-1-(2-hydroxyacetyl)azetidin-2-yl]methyl}(5-fluoro-2-{[2-(3-fluorophenyl)ethyl]amino}-6-pyrazol-4-yl(3-pyridyl))carboxamide]
